Measurements taken from patent publication US9028858B2 (Coloplast A/S, priority 2003, dated 2015).
Like-named read-outs stand apart in the source and are kept apart here.

How the values were obtained:
[1] = 1 week
[2] = system: 7 different bacterial strains; details: for bacterial survival rate, Mean: exposed 60 min.; for surviving bacteria, Mean (% of control): 1% hydrogen peroxide
[3] = initial 0.2%-point H2O2, 60° C., no PEG 2000
[4] = initial 0.2%-point H2O2, 80° C., no PEG 2000
[5] = initial 0.4%-point H2O2, 60° C., no PEG 2000
[6] = initial 0.4%-point H2O2, 80° C., no PEG 2000
[7] = initial 0.8%-point H2O2, 60° C., no PEG 2000
[8] = initial 0.8%-point H2O2, 80° C., no PEG 2000
[9] = initial 1.6%-point H2O2, 60° C., 6% PEG 2000
[10] = initial 1.6%-point H2O2, 60° C., no PEG 2000
[11] = initial 1.6%-point H2O2, 80° C., 6% PEG 2000
[12] = initial 1.6%-point H2O2, 80° C., no PEG 2000

With `OO` [Std H2O2, hydrogen peroxide] as the molecule, how does the “Appearance of catheter (0–5; 0 = perfect, 5 = unacceptable)” value (“Appearance of catheter” for short) [1, 3] read?
Its value is 0.

And the “Appearance of swelling medium (0–5)” value [1, 3]?
Its value is 0.

What about the “Loss of H2O2 (%/day)” value [1, 3] of the same molecule?
The value was 0.3 %/day.

What about the pH after storage [1, 3] of the same molecule?
Its pH after storage is 5.64.

What about the “%-point H2O2 after storage” value [1, 4] of the same molecule?
The value was 0.15 %-point.

What about the “Appearance of catheter” value [1, 4] of the same molecule?
The value was 0.

And the “Appearance of swelling medium (0–5)” value [1, 4]?
Its value is 0.

What about the “Loss of H2O2 (%/day)” value [1, 4] of the same molecule?
The value was 3.5 %/day.

And the pH after storage [1, 4]?
Its pH after storage is 5.63.

What about the “%-point H2O2 after storage” value [1, 5] of the same molecule?
The value was 0.37 %-point.

What about the “Appearance of catheter” value [1, 5] of the same molecule?
The value was 0.

What about the “Appearance of swelling medium (0–5)” value [1, 5] of the same molecule?
Its value is 0.

And the “Loss of H2O2 (%/day)” value [1, 5]?
The value was 1.0 %/day.

What about the pH after storage [1, 5] of the same molecule?
The pH after storage was 5.63.

What about the “%-point H2O2 after storage” value [1, 6] of the same molecule?
Its value is 0.29 %-point.

And the “Appearance of catheter” value [1, 6]?
The value was 0.

And the “Appearance of swelling medium (0–5)” value [1, 6]?
The value was 0.

What about the “Loss of H2O2 (%/day)” value [1, 6] of the same molecule?
The value was 3.8 %/day.

What about the pH after storage [1, 6] of the same molecule?
The pH after storage was 5.79.

What about the “%-point H2O2 after storage” value [1, 7] of the same molecule?
Its value is 0.75 %-point.

And the “Appearance of catheter” value [1, 7]?
Its value is 0.

And the “Appearance of swelling medium (0–5)” value [1, 7]?
Its value is 0.

And the “Loss of H2O2 (%/day)” value [1, 7]?
The value was 0.9 %/day.

And the pH after storage [1, 7]?
The pH after storage was 5.63.

And the “%-point H2O2 after storage” value [1, 8]?
Its value is 0.58 %-point.

What about the “Appearance of catheter” value [1, 8] of the same molecule?
Its value is 0.

And the “Appearance of swelling medium (0–5)” value [1, 8]?
The value was 0.

And the “Loss of H2O2 (%/day)” value [1, 8]?
Its value is 4.0 %/day.

And the pH after storage [1, 8]?
The pH after storage was 5.86.

What about the “%-point H2O2 after storage” value [1, 9] of the same molecule?
The value was 1.25 %-point.

What about the “Appearance of catheter” value [1, 9] of the same molecule?
The value was 1.

And the “Appearance of swelling medium (0–5)” value [1, 9]?
The value was 0.

And the “Loss of H2O2 (%/day)” value [1, 9]?
Its value is 3.2 %/day.

What about the pH after storage [1, 9] of the same molecule?
The pH after storage was 5.13.

What about the “%-point H2O2 after storage” value [1, 10] of the same molecule?
Its value is 1.41 %-point.

What about the “Appearance of catheter” value [1, 10] of the same molecule?
The value was 0.

What about the “Appearance of swelling medium (0–5)” value [1, 10] of the same molecule?
The value was 0.

And the “Loss of H2O2 (%/day)” value [1, 10]?
The value was 1.7 %/day.

What about the pH after storage [1, 10] of the same molecule?
Its pH after storage is 5.71.

And the “%-point H2O2 after storage” value [1, 11]?
The value was 0.02 %-point.

And the “Appearance of catheter” value [1, 11]?
The value was 3.

What about the “Appearance of swelling medium (0–5)” value [1, 11] of the same molecule?
The value was 0.

What about the “Loss of H2O2 (%/day)” value [1, 11] of the same molecule?
Its value is 14.1 %/day.

What about the pH after storage [1, 11] of the same molecule?
The pH after storage was 3.46.

What about the “%-point H2O2 after storage” value [1, 12] of the same molecule?
The value was 1.13 %-point.

And the “Appearance of catheter” value [1, 12]?
The value was 0.

What about the “Appearance of swelling medium (0–5)” value [1, 12] of the same molecule?
Its value is 0.

What about the “Loss of H2O2 (%/day)” value [1, 12] of the same molecule?
The value was 4.2 %/day.

And the pH after storage [1, 12]?
The pH after storage was 6.28.

And the “bacterial survival rate, Mean” value ([2]; 0.016% hydrogen peroxide)?
Its value is 49.8.

What about the “bacterial survival rate, Mean” value ([2]; 0.031% hydrogen peroxide) of the same molecule?
The value was 38.1.

What about the “bacterial survival rate, Mean” value ([2]; 0.063% hydrogen peroxide) of the same molecule?
The value was 27.8.

And the “bacterial survival rate, Mean” value ([2]; 0.125% hydrogen peroxide)?
The value was 14.5.

And the “bacterial survival rate, Mean” value ([2]; 0.250% hydrogen peroxide)?
The value was 9.1.

What about the “bacterial survival rate, Mean” value ([2]; 0.500% hydrogen peroxide) of the same molecule?
The value was 0.2.

What about the “bacterial survival rate, Mean” value ([2]; 1.000% hydrogen peroxide) of the same molecule?
The value was 0.0.

What about the “surviving bacteria, Mean (% of control)” value ([2]; exposure time 5 min) of the same molecule?
Its value is 37 % of control.

What about the “surviving bacteria, Mean (% of control)” value ([2]; exposure time 10 min) of the same molecule?
The value was 17 % of control.

And the “surviving bacteria, Mean (% of control)” value ([2]; exposure time 15 min)?
The value was 6 % of control.
